From US12679851B2, “Methyl-substituted benzobisoxazole compound and use thereof” (TONGHUA DONGBAO PHARMACEUTICAL CO., LTD., priority 2020, dated 2026)

Key:
GLP-1 receptor = GLP-1 receptor (Homo sapiens, UniProt P43220); assay: Cell activity test in vitro (cAMP detection, GLP-1 HEK293 cells); assay type: cell-based; conditions: HEK293 host cell
Procedure: The cells were constructed by Wuxi New Drug Development Co., Ltd. Shanghai.
The compound was formulated with DMSO to a working concentration of 30 μM. In this test, the usage amount of each sample was 5 μL.
The pH was adjusted to 7.4 and the volume was fixed to 25 mL with HBSS 1×.
Preparation of cAMP detection reagent: 250 μL of cAMP-D2 and 250 μL of anti-cAMP cryptate reagent were added to 4 mL of lysis buffer, and mixed gently.
The test compound was diluted 3 times by 10 points with a starting concentration of 30 μM, and the dilutions were completed by Bravo.
The reference compound exenatide was diluted 3 times by 10 points with a starting concentration of 500 nM, and the dilutions were completed by Bravo.
• 1) 100 nL of compound was transferred to OptiPlate-384 plate using Echo. • 2) OptiPlate-384 plate was centrifuged at 1000 rpm for 5 seconds. c) Preparation of cell suspension • 1) A GLP-1 cell cryopreservation tube was quickly thawed in 37° C. warm water. • 2) The cell suspension was transferred to a Transfer 15 mL of centrifuge tube and gently rinsed with 10 mL of HBSS. • 3) The centrifuge tube was centrifuged at 1000 rpm at room temperature for 1 minute. • 4) The supernatant was discarded. • 5) The cells at the bottom were gently dispersed and gently rinsed with 10 mL of HBSS, then the cells were centrifuged for sedimentation, and finally the cells were re-suspended in experimental buffer. • 6) Cell density and activity were measured by using Vi-cell. • 7) The concentration of GLP-1 cells was diluted to 2.0*10^5/mL with the experimental buffer. • 8) […] of diluted cell suspension was transferred into OptiPlate-384 plate. • 9) The cells were incubated at room temperature for 30 minutes. d) Addition of detection reagents: • 1) 10 μL of 800 nM gradient diluted cAMP standard was added to the empty well of OptiPlate-384 plate. • 2) 10 μL of cAMP detection reagent was added. • 3) OptiPlate-384 plate was covered with TopSeal-A film and incubated for 60 min at room temperature.
The TopSeal-A was removed, and the EnVision reading was performed.

CYP2D6 = molecular target: T1, CYP2D6 (Homo sapiens, UniProt P10635); assay: Cytochrome P450 isoenzyme inhibition, human liver microsomes; assay type: in vitro ADME
T1 construct: from tissue; host or cells: human liver microsomes
Procedure: (§1) To test the inhibitory effects of the test compounds on the activities of human liver microsomal cytochrome P450 isoenzymes (CYP1A2, CYP2C9, CYP2C19, CYP2D6 and CYP3A4).
(§2) Firstly, the test compound (10.0 mM) was diluted in gradient to prepare a working solution (100× final concentration), and the working solution concentrations were 5.00, 1.50, 0.500, 0.150, 0.0500, 0.0150 and 0.00500 mM respectively. At the same time, the working solution of each positive inhibitor and its specific substrate mixture of P450 isoenzymes (CYP1A2, CYP2C9, CYP2C19, CYP2D6 and CYP3A4) was prepared; the human liver microsomes stored in the refrigerator below −60° C. were thawed on ice. When the human liver microsomes were completely dissolved, then diluted with potassium phosphate buffer (PB) to prepare a working solution with a certain concentration (0.253 mg/mL).
(§3) Firstly, 20.0 μL of substrate mixture was added to the reaction plate (20.0 μL of PB was added to the blank well), then 158 μL of human liver microsome working solution was added to the reaction plate, and the reaction plate was placed on ice for later use. At this time, 2.00 μL of test compound (N=1) and specific inhibitor (N=2) of each concentration were added to the corresponding well, and the group without inhibitor (test compound or positive inhibitor) was added with the corresponding organic solvent as a of control sample (control sample of test compound was dimethyl sulfoxide:methanol=1:1, positive control samples were all dimethyl sulfoxide:methanol=1:9). After pre-incubation in 37° C. water bath for 10 minutes, 20.0 μL of a coenzyme factor (NADPH) solution was added to the reaction plate and incubated in 37° C. water bath for 10 minutes. Then 400 μL of pre-cooled acetonitrile solution (internal standard containing 200 ng/mL tolbutamide and labetalol) was added to stop the reaction; the reaction plate was placed in a shaker and shaken for 10 min to mix evenly. Then the reaction plate was centrifuged at 4° C. and 4000 rpm for 20 min. 200 μL of supernatant was taken and added to 100 μL of water for sample dilution. Finally, the plate was sealed, shaken for 10 minutes to mix evenly for LC/MS/MS detection.

CYP2C9 = molecular target: T2, CYP2C9 (Homo sapiens, UniProt P11712); assay: as above; assay type: in vitro ADME
T2 construct: from tissue; host or cells: human liver microsomes
Procedure: as §1, §2, §3

CYP2C19 [1] = molecular target: T3, CYP2C19 (Homo sapiens, UniProt P33261); assay: as above; assay type: in vitro ADME
T3 construct: human liver microsomes (HLM) were used as the incubation system; from tissue; host or cells: human liver microsomes
Procedure: as §1, §2, §3

CYP3A4 = molecular target: T4, CYP3A4 (Homo sapiens, UniProt P08684); assay: as above; assay type: in vitro ADME; conditions: CYP3A4-M
T4 construct: from tissue; host or cells: human liver microsomes
Procedure: as §1, §2, §3

CYP1A2 = molecular target: T5, CYP1A2 (Homo sapiens, UniProt P05177); assay: as above; assay type: in vitro ADME
T5 construct: from tissue; host or cells: human liver microsomes
T5 sequence (P05177 1-516): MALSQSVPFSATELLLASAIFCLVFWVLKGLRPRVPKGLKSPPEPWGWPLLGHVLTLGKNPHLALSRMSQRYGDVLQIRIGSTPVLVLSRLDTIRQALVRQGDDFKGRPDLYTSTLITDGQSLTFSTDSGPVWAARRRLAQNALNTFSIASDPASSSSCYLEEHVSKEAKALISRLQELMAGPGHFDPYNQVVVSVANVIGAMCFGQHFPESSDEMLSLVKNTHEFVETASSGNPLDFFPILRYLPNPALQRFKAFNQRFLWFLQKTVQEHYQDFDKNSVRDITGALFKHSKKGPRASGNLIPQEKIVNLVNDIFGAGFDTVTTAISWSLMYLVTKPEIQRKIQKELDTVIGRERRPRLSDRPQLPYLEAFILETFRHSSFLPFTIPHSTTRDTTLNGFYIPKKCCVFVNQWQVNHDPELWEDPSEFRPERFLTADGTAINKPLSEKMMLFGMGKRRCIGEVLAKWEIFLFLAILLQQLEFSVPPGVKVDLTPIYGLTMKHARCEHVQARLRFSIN
Procedure: as §1, §2, §3

[2] = Cynomolgus monkey in vivo DMPK study; conditions: male cynomolgus monkeys, single oral 0.5 mg/kg
Procedure: Male cynomolgus monkeys were used as test animals, and the plasma concentration of the compound was determined after a single oral administration and the pharmacokinetic behavior was evaluated.
Two healthy male cynomolgus monkeys (fasting) were selected as the oral group. Oral vehicle was 20% hydroxypropyl-p-cyclodextrin aqueous solution. After the test compound was mixed with the vehicle, vortexed and sonicated to prepare 0.1 mg/mL approximately clear solution. The oral dosage of cynomolgus monkey was 0.5 mg/kg. After oral administration, whole blood was collected for a certain time to prepare plasma. The drug concentration was analyzed by LC-MS/MS method, and the pharmacokinetic parameters were calculated by Phoenix WinNonlin 6.3.

CYP2C19 [3] = molecular target: T3, CYP2C19; assay: Cytochrome P450 isoenzyme time-dependent inhibition, human liver microsomes; assay type: in vitro ADME
Procedure: To test the time-dependent inhibitory effect of the test compounds on the activity of human liver microsomal cytochrome P450 isoenzyme CYP2C19.
The experiment was divided into two groups. In the first group, human liver microsomes (HLM) were used as the incubation system, and a series of concentrations of test samples were added to the incubation system, and then coenzyme factor (NADPH) solution was added, and pre-incubated at 37° C. for 30 minutes. After pre-incubation, the probe substrate solution was added, and after incubation for a certain time, the reaction was terminated; the amount of probe substrate metabolites produced in the incubation solution was measured, and the enzyme activity was calculated. The second group of reactions was to use human liver microsomes (HLM) as the incubation system, and a series of concentrations of test samples were added to the incubation system, and then potassium phosphate buffer was added, and pre-incubated at 37° C. for 30 minutes. After pre-incubation, a mixed solution of NADPH and probe substrate was added. After incubation for a certain time, the reaction was terminated, the amount of probe substrate metabolites produced in the incubation solution was measured, and the enzyme activity was calculated.
Firstly, the test compound (10.0 mM) was diluted in gradient to prepare a working solution (100× final concentration), and the working solution concentrations were 5.00, 1.65, 0.500, 0.165, 0.0500, 0.0165 and 0.00500 mM respectively. At the same time, the positive inhibitor of P450 isoenzyme CYP2C19, probe substrate and NADPH working solution were prepared; the human liver microsomes stored in the refrigerator below −60° C. were thawed on ice. When the human liver microsomes were completely dissolved, then diluted with potassium phosphate buffer (PB) to prepare a working solution with a certain concentration (0.169 mg/mL).
Then 147.5 μL of human liver microsome working solution was added to the reaction plate, and the reaction plate was placed on ice for use. […]

T4 sequence (P08684 whole entry): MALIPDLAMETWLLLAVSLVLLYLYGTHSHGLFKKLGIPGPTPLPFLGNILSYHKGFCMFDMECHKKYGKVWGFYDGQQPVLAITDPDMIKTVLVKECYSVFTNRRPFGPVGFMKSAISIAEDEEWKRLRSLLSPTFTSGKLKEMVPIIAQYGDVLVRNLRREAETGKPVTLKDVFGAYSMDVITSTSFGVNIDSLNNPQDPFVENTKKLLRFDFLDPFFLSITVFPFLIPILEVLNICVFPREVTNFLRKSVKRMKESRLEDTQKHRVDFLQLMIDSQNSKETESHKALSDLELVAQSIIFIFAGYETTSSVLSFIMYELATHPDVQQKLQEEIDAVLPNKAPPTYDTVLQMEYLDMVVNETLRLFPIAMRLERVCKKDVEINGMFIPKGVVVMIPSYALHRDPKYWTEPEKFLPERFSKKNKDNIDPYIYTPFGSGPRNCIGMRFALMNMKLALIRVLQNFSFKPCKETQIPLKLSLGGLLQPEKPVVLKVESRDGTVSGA
T1 sequence (P10635 whole entry): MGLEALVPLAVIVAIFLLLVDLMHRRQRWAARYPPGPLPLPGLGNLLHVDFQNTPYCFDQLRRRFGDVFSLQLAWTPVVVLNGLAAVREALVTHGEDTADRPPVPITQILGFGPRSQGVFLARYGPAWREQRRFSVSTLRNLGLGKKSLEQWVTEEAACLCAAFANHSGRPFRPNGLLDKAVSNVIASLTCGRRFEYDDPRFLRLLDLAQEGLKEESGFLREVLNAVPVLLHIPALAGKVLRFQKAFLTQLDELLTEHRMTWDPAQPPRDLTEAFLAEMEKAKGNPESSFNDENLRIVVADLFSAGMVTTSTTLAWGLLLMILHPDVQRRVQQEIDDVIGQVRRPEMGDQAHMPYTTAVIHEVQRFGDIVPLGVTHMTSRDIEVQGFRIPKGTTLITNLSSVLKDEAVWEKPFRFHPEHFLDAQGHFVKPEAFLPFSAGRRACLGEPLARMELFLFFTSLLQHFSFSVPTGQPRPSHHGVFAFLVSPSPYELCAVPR
T3 sequence (P33261 whole entry): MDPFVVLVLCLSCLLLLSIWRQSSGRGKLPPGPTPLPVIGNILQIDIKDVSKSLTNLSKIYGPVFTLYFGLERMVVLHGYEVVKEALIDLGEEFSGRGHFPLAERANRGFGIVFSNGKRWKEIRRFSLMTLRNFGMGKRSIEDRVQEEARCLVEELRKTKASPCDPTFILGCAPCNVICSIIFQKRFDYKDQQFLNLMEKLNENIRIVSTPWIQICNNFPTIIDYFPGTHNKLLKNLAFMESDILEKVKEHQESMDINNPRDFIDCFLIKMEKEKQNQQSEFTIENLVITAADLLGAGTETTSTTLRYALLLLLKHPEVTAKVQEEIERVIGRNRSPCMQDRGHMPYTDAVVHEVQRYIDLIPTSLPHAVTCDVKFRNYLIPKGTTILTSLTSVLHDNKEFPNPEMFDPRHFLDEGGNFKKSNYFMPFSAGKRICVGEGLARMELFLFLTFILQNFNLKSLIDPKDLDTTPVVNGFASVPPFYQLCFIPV
T2 sequence (P11712 whole entry): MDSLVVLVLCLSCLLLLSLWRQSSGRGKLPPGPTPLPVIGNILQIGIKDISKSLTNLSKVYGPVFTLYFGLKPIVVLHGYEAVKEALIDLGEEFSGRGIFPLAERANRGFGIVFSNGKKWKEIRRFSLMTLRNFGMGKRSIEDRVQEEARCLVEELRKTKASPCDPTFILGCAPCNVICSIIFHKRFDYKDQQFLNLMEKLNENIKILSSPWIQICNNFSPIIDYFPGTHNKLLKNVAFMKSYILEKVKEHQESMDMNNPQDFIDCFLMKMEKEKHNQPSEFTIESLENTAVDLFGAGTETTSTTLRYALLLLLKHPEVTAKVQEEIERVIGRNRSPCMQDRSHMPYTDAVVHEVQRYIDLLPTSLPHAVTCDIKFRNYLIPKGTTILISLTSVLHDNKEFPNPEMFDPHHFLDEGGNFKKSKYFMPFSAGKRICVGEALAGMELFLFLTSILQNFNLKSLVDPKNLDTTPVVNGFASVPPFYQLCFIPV
GLP-1 receptor, sequence (P43220 24-463): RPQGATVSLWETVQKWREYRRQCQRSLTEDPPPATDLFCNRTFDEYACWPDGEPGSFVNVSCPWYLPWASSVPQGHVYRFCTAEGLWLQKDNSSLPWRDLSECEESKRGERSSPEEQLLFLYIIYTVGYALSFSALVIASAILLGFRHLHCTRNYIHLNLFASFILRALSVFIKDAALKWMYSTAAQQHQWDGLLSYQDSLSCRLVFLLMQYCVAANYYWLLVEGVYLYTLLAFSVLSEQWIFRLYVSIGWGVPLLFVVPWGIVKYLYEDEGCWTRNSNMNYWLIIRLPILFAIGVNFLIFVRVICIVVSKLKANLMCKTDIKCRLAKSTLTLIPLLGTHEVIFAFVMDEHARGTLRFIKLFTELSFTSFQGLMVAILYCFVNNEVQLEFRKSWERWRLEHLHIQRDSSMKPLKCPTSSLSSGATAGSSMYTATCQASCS

| Compound | EC50 (GLP-1 receptor) | IC50 (CYP2D6) | IC50 (CYP2C9) | IC50 (CYP2C19 [1]) | IC50 (CYP3A4) | IC50 (CYP1A2) | half-life ([2]; cynomolgus monkey, plasma) | Cmax ([2]; cynomolgus monkey, plasma) | Oral DNAUC ([2]; DNAUC = AUCPO/Dose) | Time-dependent inhibition (Yes or No) (CYP2C19 [3]) | IC50 (CYP2C19 [3]; 30 min pre-incubation with NADPH) | IC50 (CYP2C19 [3]; 30 min pre-incubation without NADPH) |
| --- | --- | --- | --- | --- | --- | --- | --- | --- | --- | --- | --- | --- |
| CC1(c2ccc(Cl)cc2F)Oc2cccc(C3CCN(Cc4nc5sc(C(=O)O)cc5n4C[C@@H]4CCO4)CC3)c2O1 (single isomer, unassigned) [Compound 004] | 0.0002 µM | > 50 µM | 31.9 µM | 23.6 µM | 40.8 µM | 43.7 µM | 3.94 h | 132 nM | 1056 nM · h/mpk | – | – | – |
| CC1(c2ccc(Cl)cc2F)Oc2cccc(N3CCN(Cc4nc5sc(C(=O)O)cc5n4CC4CCO4)CC3)c2O1 (single isomer, unassigned) [Compound 005A] | 0.00015 µM | > 50 µM | 30.8 µM | > 50 µM | > 50 µM | > 50 µM | – | – | – | No | > 50 µM | 44.3 µM |
| CC1(c2ccc(Cl)cc2F)Oc2cccc(C3CCN(Cc4nc5sc(C(=O)O)c(F)c5n4C[C@@H]4CCO4)CC3)c2O1 (single isomer, unassigned) [Compound 006] | 0.00039 µM | > 50 µM | 21.6 µM | > 50 µM | 48.7 µM | 38.8 µM | – | – | – | – | – | – |

Next, values leading:

| EC50 (GLP-1 receptor) | IC50 (CYP2D6) | IC50 (CYP2C9) | IC50 (CYP2C19 [1]) | IC50 (CYP3A4) | IC50 (CYP1A2) | half-life ([2]; cynomolgus monkey, plasma) | Cmax ([2]; cynomolgus monkey, plasma) | Oral DNAUC ([2]; DNAUC = AUCPO/Dose) | Time-dependent inhibition (Yes or No) (CYP2C19 [3]) | IC50 (CYP2C19 [3]; 30 min pre-incubation with NADPH) | IC50 (CYP2C19 [3]; 30 min pre-incubation without NADPH) | Compound |
| --- | --- | --- | --- | --- | --- | --- | --- | --- | --- | --- | --- | --- |
| 0.00033 µM | – | – | – | – | – | – | – | – | – | – | – | C[C@]1(c2ccc(C#N)cc2F)Oc2cccc(C3=CCN(Cc4nc5sc(C(=O)O)cc5n4C[C@@H]4CCO4)CC3)c2O1 [Compound 011A] |
| 0.00152 µM | – | – | – | – | – | – | – | – | – | – | – | C[C@]1(c2ccc(C#N)cc2F)Oc2cccc(C3=CCN(Cc4nc5cc(C(=O)O)sc5n4C[C@@H]4CCO4)CC3)c2O1 [Compound 011B] |
